According to PubChem BioAssay (NCI):
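GI50 marks 50% less growth. TGI is the concentration that stops growth completely.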

Key:
Assay in all cases: NCI-60 cell line screen, 384-well format
786-0 renal = system: 786-0 renal
A498 renal = system: A498 renal
A549 NSCLC = system: A549 NSCLC
ACHN renal = system: ACHN renal
BT-549 breast = system: BT-549 breast
CAKI-1 renal = system: CAKI-1 renal
CCRF-CEM leukemia = system: CCRF-CEM leukemia
COLO 205 colon = system: COLO 205 colon
DU-145 prostate = system: DU-145 prostate
EKVX NSCLC = system: EKVX NSCLC
HCC-2998 colon = system: HCC-2998 colon
HCT-15 colon = system: HCT-15 colon
HL-60(TB) leukemia = system: HL-60(TB) leukemia
HOP-62 NSCLC = system: HOP-62 NSCLC
HOP-92 NSCLC = system: HOP-92 NSCLC
HS 578T breast = system: HS 578T breast
HT29 colon = system: HT29 colon
IGROV1 ovarian = system: IGROV1 ovarian
K-562 leukemia = system: K-562 leukemia
KM12 colon = system: KM12 colon
LOX IMVI melanoma = system: LOX IMVI melanoma
M14 melanoma = system: M14 melanoma
MALME-3M melanoma = system: MALME-3M melanoma
MCF7 breast = system: MCF7 breast
MDA-MB-231 breast = system: MDA-MB-231 breast
MDA-MB-435 melanoma = system: MDA-MB-435 melanoma
MDA-MB-468 breast = system: MDA-MB-468 breast
MOLT-4 leukemia = system: MOLT-4 leukemia
NCI-H226 lung = system: NCI-H226 lung
NCI-H23 lung = system: NCI-H23 lung
NCI-H322M lung = system: NCI-H322M lung
NCI-H460 NSCLC = system: NCI-H460 NSCLC
NCI-H522 lung = system: NCI-H522 lung
NCI/ADR-RES ovarian = system: NCI/ADR-RES ovarian
OVCAR-3 ovarian = system: OVCAR-3 ovarian
OVCAR-4 ovarian = system: OVCAR-4 ovarian
OVCAR-5 ovarian = system: OVCAR-5 ovarian
OVCAR-8 ovarian = system: OVCAR-8 ovarian
PC-3 prostate = system: PC-3 prostate
RPMI-8226 leukemia = system: RPMI-8226 leukemia
RXF 393 renal = system: RXF 393 renal
SF-268 CNS = system: SF-268 CNS
SF-295 CNS = system: SF-295 CNS
SF-539 CNS = system: SF-539 CNS
SK-MEL-28 melanoma = system: SK-MEL-28 melanoma
SK-MEL-5 melanoma = system: SK-MEL-5 melanoma
SK-OV-3 ovarian = system: SK-OV-3 ovarian
SN12C renal = system: SN12C renal
SNB-19 CNS = system: SNB-19 CNS
SNB-75 CNS = system: SNB-75 CNS
SR leukemia = system: SR leukemia
SW-620 colon = system: SW-620 colon
T-47D breast = system: T-47D breast
TK-10 renal = system: TK-10 renal
UACC-257 melanoma = system: UACC-257 melanoma
UACC-62 melanoma = system: UACC-62 melanoma
UO-31 renal = system: UO-31 renal

COc1cc2c(cc1-c1c(C)noc1C)cc(C)c(=O)n2Cc1ccccn1 showed a GI50 ([…]-0 renal) of 812 nM, a TGI (786-0 renal) of 19200 nM and a GI50 (A498 renal) of 418 nM. For the same compound, the TGI (A498 renal) was 12400 nM, the GI50 (A549 NSCLC) was 557 nM and the TGI (A549 NSCLC) was 18300 nM. The GI50 (ACHN renal) was 1050 nM, the TGI (ACHN renal) was greater than 100000 nM and the GI50 (BT-549 breast) was 262 nM. For the same compound, the TGI (BT-549 breast) was 1680 nM, the GI50 (CAKI-1 renal) was 342 nM and the TGI (CAKI-1 renal) was 18500 nM. For the same compound, the GI50 (CCRF-CEM leukemia) was 338 nM, the TGI (CCRF-CEM leukemia) was 1650 nM and the GI50 (COLO 205 colon) was 498 nM. It also gave a TGI (COLO 205 colon) of 13300 nM, a GI50 (DU-145 prostate) of 6450 nM and a TGI (DU-145 prostate) greater than 100000 nM. For the same compound, the GI50 (EKVX NSCLC) was 4540 nM, the TGI (EKVX NSCLC) was greater than 100000 nM and the GI50 (HCC-2998 colon) was 324 nM. The TGI (HCC-2998 colon) was 1410 nM, the GI50 (HCT-15 colon) was 282 nM and the TGI (HCT-15 colon) was 1550 nM. For the same compound, the GI50 (HL-60(TB) leukemia) was 118 nM, the TGI (HL-60(TB) leukemia) was 255 nM and the GI50 (HOP-62 NSCLC) was 415 nM. For the same compound, the TGI (HOP-62 NSCLC) was 16500 nM, the GI50 (HOP-92 NSCLC) was 234 nM and the TGI (HOP-92 NSCLC) was 4540 nM. It also gave a GI50 (HS 578T breast) of 192 nM, a TGI (HS 578T breast) of 671 nM and a GI50 (HT29 colon) of 376 nM. It also gave a TGI (HT29 colon) of 5680 nM, a GI50 (IGROV1 ovarian) of 566 nM and a TGI (IGROV1 ovarian) of 3330 nM. For the same compound, the GI50 (K-562 leukemia) was 448 nM, the TGI (K-562 leukemia) was 2780 nM and the GI50 (KM12 colon) was 691 nM. The TGI (KM12 colon) was 20300 nM, the GI50 (LOX IMVI melanoma) was 321 nM and the TGI (LOX IMVI melanoma) was 1090 nM. The GI50 (M14 melanoma) was 600 nM, the TGI (M14 melanoma) was 21800 nM and the GI50 (MALME-3M melanoma) was 274 nM. The TGI (MALME-3M melanoma) was 2180 nM, the GI50 (MCF7 breast) was 257 nM and the TGI (MCF7 breast) was 2480 nM. For the same compound, the GI50 (MDA-MB-231 breast) was 367 nM, the TGI (MDA-MB-231 breast) was 16200 nM and the GI50 (MDA-MB-435 melanoma) was 1010 nM. It also gave a TGI (MDA-MB-435 melanoma) of 2420 nM, a GI50 (MDA-MB-468 breast) of 226 nM and a TGI (MDA-MB-468 breast) of 693 nM. For the same compound, the GI50 (MOLT-4 leukemia) was 616 nM, the TGI (MOLT-4 leukemia) was 1920 nM and the GI50 (NCI-H226 lung) was 646 nM. The TGI (NCI-H226 lung) was 5740 nM, the GI50 (NCI-H23 lung) was 742 nM and the TGI (NCI-H23 lung) was 5190 nM. For the same compound, the GI50 (NCI-H322M lung) was 1090 nM, the TGI (NCI-H322M lung) was 31700 nM and the GI50 (NCI-H460 NSCLC) was 2120 nM. The TGI (NCI-H460 NSCLC) was 17500 nM, the GI50 (NCI-H522 lung) was 202 nM and the TGI (NCI-H522 lung) was 817 nM. It also gave a GI50 (NCI/ADR-RES ovarian) of 371 nM, a TGI (NCI/ADR-RES ovarian) of 2470 nM and a GI50 (OVCAR-3 ovarian) of 374 nM. It also gave a TGI (OVCAR-3 ovarian) of 1650 nM, a GI50 (OVCAR-4 ovarian) of 188 nM and a TGI (OVCAR-4 ovarian) of 586 nM. It also gave a GI50 (OVCAR-5 ovarian) of 496 nM, a TGI (OVCAR-5 ovarian) of 21300 nM and a GI50 (OVCAR-8 ovarian) of 430 nM. For the same compound, the TGI (OVCAR-8 ovarian) was 9450 nM, the GI50 (PC-3 prostate) was 1820 nM and the TGI (PC-3 prostate) was greater than 100000 nM. The GI50 (RPMI-8226 leukemia) was 106 nM, the TGI (RPMI-8226 leukemia) was 316 nM and the GI50 (RXF 393 renal) was 1980 nM. For the same compound, the TGI (RXF 393 renal) was 15300 nM, the GI50 (SF-268 CNS) was 2010 nM and the TGI (SF-268 CNS) was 11300 nM. It also gave a GI50 (SF-295 CNS) of 1750 nM, a TGI (SF-295 CNS) of 24900 nM and a GI50 (SF-539 CNS) of 805 nM. For the same compound, the TGI (SF-539 CNS) was 7540 nM, the GI50 (SK-MEL-28 melanoma) was 628 nM and the TGI (SK-MEL-28 melanoma) was 6770 nM. It also gave a GI50 (SK-MEL-5 melanoma) of 527 nM, a TGI (SK-MEL-5 melanoma) of 2380 nM and a GI50 (SK-OV-3 ovarian) of 433 nM. It also gave a TGI (SK-OV-3 ovarian) of 3610 nM, a GI50 (SN12C renal) of 2180 nM and a TGI (SN12C renal) of 21500 nM. For the same compound, the GI50 (SNB-19 CNS) was 1130 nM, the TGI (SNB-19 CNS) was 23600 nM and the GI50 (SNB-75 CNS) was 487 nM. For the same compound, the TGI (SNB-75 CNS) was greater than 100000 nM, the GI50 (SR leukemia) was 140 nM and the TGI (SR leukemia) was 1150 nM. It also gave a GI50 (SW-620 colon) of 1680 nM, a TGI (SW-620 colon) of 14400 nM and a GI50 (T-47D breast) of 313 nM. For the same compound, the TGI (T-47D breast) was 3060 nM, the GI50 (TK-10 renal) was 367 nM and the TGI (TK-10 renal) was 3810 nM. It also gave a GI50 (UACC-257 melanoma) of 373 nM, a TGI (UACC-257 melanoma) of 4710 nM and a GI50 (UACC-62 melanoma) of 190 nM. It also gave a TGI (UACC-62 melanoma) of 1440 nM, a GI50 (UO-31 renal) of 2890 nM and a TGI (UO-31 renal) greater than 100000 nM.
